In article PMC2651799 (Nucleic Acids Research, 2009) one finds IC50 data, which are given here for two compounds.

The assay has as its target T1, RmtA (Pseudomonas aeruginosa, UniProt Q8GRA1).
T1 sequence (Q8GRA1 1-251): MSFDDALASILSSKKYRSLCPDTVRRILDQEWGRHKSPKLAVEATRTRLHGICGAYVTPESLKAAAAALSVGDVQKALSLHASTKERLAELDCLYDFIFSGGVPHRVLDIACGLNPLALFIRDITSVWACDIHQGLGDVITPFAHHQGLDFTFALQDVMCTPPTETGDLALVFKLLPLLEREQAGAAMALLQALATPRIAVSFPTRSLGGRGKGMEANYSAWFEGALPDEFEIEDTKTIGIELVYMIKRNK
It is filed as biochemical.

For `Nc1ncnc2c1ncn2[C@@H]1O[C@H](CSCC[C@H](N)C(=O)O)[C@@H](O)[C@H]1O` [SAH], the 50% inhibitory concentration (IC50) (in general, the point on the concentration scale where inhibition reaches its midpoint) worked out at 9.33 ± 0.07 µM. For the compound `Nc1ncnc2c1ncn2[C@@H]1O[C@H](C[C@@H](N)CC[C@H](N)C(=O)O)[C@@H](O)[C@H]1O` [sinefungin], the half-maximal inhibitory concentration (IC50) was found to be 19.95 ± 0.09 µM.
